Test results as given in patent publication US20150225739A1 (priority 2014, published 2015).
Like-named read-outs stand apart in the source and are kept apart here.

Key:
[1] = In vivo quinacrine dosage determination in shrimp (mortality); parameters: species or system Litopenaeus vannamei; settings: injected 0.5, 2.5 or 5 μg/g body weight, 20 shrimp per group, 2 weeks
Method: To determine the optimal QC dosage for the challenge experiment, four groups of shrimp (20 shrimp per group) were injected with different doses ([…], 2.5 μg/g, or 5 μg/g body weight) of QC (10 mg/mL stock solution in PBS) or with PBS (negative control). The mortality of each group was observed and recorded every 12 h.
(§1) For the WSSV challenge experiment, groups of shrimp (14 shrimp per group) were injected either with WSSV (50 μl of 100× dilution of the virus stock) or with PBS as a negative control. These first injections were then immediately followed by a second injection of 50 μl of either QC (5 μg/g) or PBS. Pleopods were excised from 3 randomly selected shrimp from each group at 0, 1, 2, 6 and 9 days post-injection (dpi) and tested for WSSV infection as described below. A second replicate of this entire experiment was performed at the same time. No pleopods were collected from the shrimp in this second replicate. Instead, mortality was observed and recorded every 12 h.

WSSV = test: In vivo quinacrine assay and WSSV challenge experiment in shrimp; parameters: species or system Litopenaeus vannamei
Method: as §1
A commercial WSSV diagnostic kit (IQ2000 WSSV Detection and Prevention System, GeneReach Biotechnology Corp.) was used to determine WSSV infection levels. Briefly, genomic DNA extracted from the shrimp pleopod samples was isolated using the DTAB/CTAB extraction procedure according to the manufacturer's instructions. Next, competitive nested PCR analysis was performed using the extracted DNA samples. The PCR products were analyzed by electrophoresis with a 2% agarose gel. WSSV infection levels were determined according to the pattern of bands indicated in the kit's instructions.

icp35 IRES [2] = settings: Sf9 cells, 48 h, relative to untreated
[3] = test system: Encephalomyocarditis Virus (EMCV) IRES; settings: dose-dependent; cited from earlier work
[4] = test system: hepatitis C virus (HCV) IRES; settings: dose-dependent; cited from earlier work
poliovirus IRES = settings: dose-dependent; cited from earlier work
cellular p53 IRES = settings: cited from earlier work
icp35 IRES [5] = test: IRES activity under tunicamycin-induced ER stress, dual luciferase assay in Sf9 cells; assay type: cell-based, White spot syndrome virus; settings: tunicamycin 2.5 μg/ml added 24 h post-transfection, 15 h of treatment
Method: After 15 h of treatment, cells were harvested. One replicate of the harvested cells was subjected to a dual luciferase assay as described above. The other replicate was subjected to Western blotting to monitor the level of the phosphorylated proteins. For this assay, 2× sample buffer was added to the cells and the mixture was boiled for 10 minutes. An aliquot (15 μl) was separated on 15% SDS-PAGE and transferred onto the PVDF membrane as described above. The blots were then blocked with 5% BSA in TBST (0.01% of Tween 20 in TBS buffer) for 1 h at RT, and probed with the commercial primary antibodies Phospho-eIF2α (Ser51) (Cell Signaling) or EIF2S1 (Abeam). The antibodies were diluted 1:1,000 in 2.5% non-fat milk in TBST and applied for 16 h at 4° C. This step was followed by washing three times for 10 min at RT with TBST. The blots were then probed with anti-Rabbit or anti-Mouse IgG secondary antibody (Santa Cruz Biotechnology) diluted 1:10,000 in 2.5% BSA in TBST for 1 hr at RT, and washed three times for 10 min at RT with TBST. Western Lightning® Plus-ECL reagents were used for visualization as described above.

Row | Compound | survival of unchallenged shrimp [1] | mortality rate after WSSV challenge (WSSV; QC 5 μg/g injected immediately after WSSV inoculum, vs WSSV+PBS) | shrimp still alive (WSSV; WSSV+QC group, QC 5 μg/g, 9 dpi) | WSSV infection level in surviving shrimp (IQ2000 nested competitive PCR) (WSSV; WSSV+QC sample collection group, 1, 2, 6 and 9 dpi) | FL value (IRES-mediated firefly luciferase activity) (icp35 IRES [2]; QC 25 μM) | FL/RL ratio (icp35 IRES [2]; QC 25 μM) | FL value (IRES-mediated firefly luciferase activity) (icp35 IRES [2]; QC 30 μM) | FL/RL ratio (icp35 IRES [2]; QC 30 μM) | RL value (cap-dependent Renilla luciferase activity) (icp35 IRES [2]; […], QC 25 μM or 30 μM) | IRES activity [3] | IRES activity [4] | IRES activity (poliovirus IRES) | sensitivity of IRES to QC (cellular p53 IRES) | cap-dependent translation (RL activity) (icp35 IRES [5]) | icp35 IRES-dependent translation (FL activity) (icp35 IRES [5])
1 | CCN(CC)CCCC(C)Nc1c2ccc(Cl)cc2nc2ccc(OC)cc12 (stereo not drawn) [QC, quinacrine dihydrochioride] | All but one of the shrimp (in the 0.5 μg/g group) survived | significantly reduced | over 70% | tested negative or had only a light infection | significantly reduced | significantly reduced | significantly reduced | significantly reduced | no significant effect | inhibited | inhibited | inhibited | not sensitive |  | 
2 | tunicamycin |  |  |  |  |  |  |  |  |  |  |  |  |  | inhibited | inhibited
